In PubChem BioAssay AID248 (DTP/NCI, 2004):
“And” between values parts separate entries of the source, which are not always exact repeats. Equal entries are not always repeated. Inconclusive results and toxic doses are left out. Cut-off read from the data, not from the text of the source: active = T/C of 150% or more; inactive = T/C below 125%.

Tested on: L1210 leukemia ip in BDF1 mice, survival T/C
Assay: NCI In Vivo Anticancer Drug Screen. Data for tumor model L1210 Leukemia (intraperitoneal) in B6D2F1 (BDF1) mice
Details: endpoint: mean survival time, higher = longer survival
Method in brief: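 Value reflects the ratio of survival in compound-treated mice to survival in vehicle-treated controls, with both groups carrying the same transplanted tumor.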

[1] = dose: 25.0 mg/kg/injection, schedule: Q04DX003 (ip), vehicle: saline
[2] = dose: 50.0 mg/kg/injection, schedule: Q04DX003 (ip), vehicle: saline
[3] = dose: 100.0 mg/kg/injection, schedule: Q01DX001 (ip), vehicle: saline
[4] = dose: 200.0 mg/kg/injection, schedule: Q01DX001 (ip), vehicle: saline
[5] = dose: 400.0 mg/kg/injection, schedule: Q01DX001 (ip), vehicle: saline
[6] = dose: 100.0 mg/kg/injection, schedule: Q04DX003 (ip), vehicle: saline
[7] = dose: 100.0 mg/kg/injection, schedule: Q04DX002 (ip), vehicle: Klucel (hydroxypropylcellulose) (HPC)
[8] = dose: 100.0 mg/kg/injection, schedule: Q01DX001 (ip), vehicle: carboxymethylcellulose (CMC)
[9] = dose: 200.0 mg/kg/injection, schedule: Q01DX001 (ip), vehicle: carboxymethylcellulose (CMC)
[10] = dose: 400.0 mg/kg/injection, schedule: Q01DX001 (ip), vehicle: carboxymethylcellulose (CMC)
[11] = dose: 100.0 mg/kg/injection, schedule: Q04DX003 (ip), vehicle: Klucel (hydroxypropylcellulose) (HPC)
[12] = dose: 200.0 mg/kg/injection, schedule: Q04DX003 (ip), vehicle: Klucel (hydroxypropylcellulose) (HPC)
[13] = dose: 400.0 mg/kg/injection, schedule: Q04DX003 (ip), vehicle: Klucel (hydroxypropylcellulose) (HPC)
[14] = dose: 100.0 mg/kg/injection, schedule: Q01DX009 (ip), vehicle: Klucel (hydroxypropylcellulose) (HPC)
[15] = dose: 200.0 mg/kg/injection, schedule: Q01DX009 (ip), vehicle: Klucel (hydroxypropylcellulose) (HPC)
[16] = dose: 400.0 mg/kg/injection, schedule: Q01DX009 (ip), vehicle: Klucel (hydroxypropylcellulose) (HPC)

Measured: T/C

C=C1CC2(CCC3(CC2)CC(=C)C(=O)O3)OC1=O (stereo not given)
inactive: dose: 12.5 mg/kg/injection, schedule: Q04DX003 (ip), vehicle: saline 102 % of control | [1] 116 % of control | [2] 119 % of control

Cc1ccc(S(=O)(=O)N/N=C2/C3CC4C(C3)C24)cc1
inactive: [3] 90 % of control | [4] 88 % of control | dose: 200.0 mg/kg/injection, schedule: Q01DX009 (ip), vehicle: saline 92 % of control | [5] 103 % of control

CCOP(=O)(OCC)Oc1c(Cl)c(Cl)c(OC(=O)Nc2cc(Cl)ccc2Cl)c(Cl)c1Cl
inactive: dose: 25.0 mg/kg/injection, schedule: Q04DX002 (ip), vehicle: saline with Tween-80 90 % of control | dose: 50.0 mg/kg/injection, schedule: Q04DX002 (ip), vehicle: saline with Tween-80 97 % of control | dose: 100.0 mg/kg/injection, schedule: Q04DX002 (ip), vehicle: saline with Tween-80 94 % of control

Cc1cccnc1N1CCNC1=O
inactive: [1] 92 % of control | [2] 103 % of control | [6] 96 % of control and 117 % of control

COC1OC(CO)C(N(C)C(C)=O)C1O (stereo not given)
inactive: [3] 94 % of control | [4] 103 % of control | [5] 97 % of control

Cc1c(C(=O)NN)no[n+]1[O-]
inactive: dose: 25.0 mg/kg/injection, schedule: Q04DX002 (ip), vehicle: Klucel (hydroxypropylcellulose) (HPC) 96 % of control | dose: 50.0 mg/kg/injection, schedule: Q04DX002 (ip), vehicle: Klucel (hydroxypropylcellulose) (HPC) 93 % of control | [7] 93 % of control

CC(C)Nc1ccc(O)cc1
inactive: [7] 106 % of control | dose: 200.0 mg/kg/injection, schedule: Q04DX002 (ip), vehicle: Klucel (hydroxypropylcellulose) (HPC) 95 % of control

NC(=NC1CCCCC1)c1ccc(C(=O)OCc2ccccc2)cc1
inactive: [8] 94 % of control | [9] 89 % of control | [10] 94 % of control

CC(=O)c1ccc(C(O)C(CO)NC(=O)C(Cl)Cl)cc1 (stereo not given)
inactive: [11] 100 % of control | [12] 103 % of control | [13] 103 % of control

O=C(CNCc1ccccc1)Oc1c(Cl)c(Cl)c(Cl)c(Cl)c1Cl
inactive: dose: 100.0 mg/kg/injection, schedule: Q04DX003 (ip), vehicle: other 94 % of control | dose: 200.0 mg/kg/injection, schedule: Q04DX003 (ip), vehicle: other 93 % of control

CCCCCCCCCCCCSCCC(=O)O
inactive: [3] 98 % of control | [4] 95 % of control | [5] 93 % of control

O=C1Nc2ccccc2C1=Nc1cccc2ncccc12
inactive: dose: 100.0 mg/kg/injection, schedule: Q01DX001 (ip), vehicle: acetone 97 % of control | dose: 200.0 mg/kg/injection, schedule: Q01DX001 (ip), vehicle: acetone 93 % of control | dose: 400.0 mg/kg/injection, schedule: Q01DX001 (ip), vehicle: acetone 100 % of control

CCCCCCCCCC(=O)OCC(COC(=O)CCCCCCCCC)OC(=O)CCCCCCCCC
inactive: dose: 100.0 mg/kg/injection, schedule: Q01DX009 (sc), vehicle: olive oil, sesame oil, peanut oil 103 % of control | dose: 100.0 mg/kg/injection, schedule: Q04DX003 (sc), vehicle: olive oil, sesame oil, peanut oil 101 % of control | dose: 200.0 mg/kg/injection, schedule: Q01DX009 (sc), vehicle: olive oil, sesame oil, peanut oil 101 % of control | dose: 200.0 mg/kg/injection, schedule: Q04DX003 (sc), vehicle: olive oil, sesame oil, peanut oil 97 % of control | dose: 400.0 mg/kg/injection, schedule: Q01DX009 (sc), vehicle: olive oil, sesame oil, peanut oil 104 % of control | dose: 400.0 mg/kg/injection, schedule: Q04DX003 (sc), vehicle: olive oil, sesame oil, peanut oil 104 % of control

O=c1cc(/C=C/c2ccc3ccccc3n2)c2ccccc2[nH]1
inactive: [3] 98 % of control | [4] 96 % of control | [5] 102 % of control

CN(C)/C=N\c1ncnc2c1ncn2C1OC(CO)C2OC(C)(C)OC21 (stereo not given)
inactive: dose: 100.0 mg/kg/injection, schedule: Q01DX005 (ip), vehicle: saline 104 % of control | dose: 200.0 mg/kg/injection, schedule: Q01DX005 (ip), vehicle: saline 103 % of control

Nn1c(=S)[nH][nH]c1=S
inactive: [6] 97 % of control | dose: 200.0 mg/kg/injection, schedule: Q04DX003 (ip), vehicle: saline 103 % of control | dose: 400.0 mg/kg/injection, schedule: Q04DX003 (ip), vehicle: saline 98 % of control

c1ccc(C2OC(c3ccccc3)C(c3ccccc3)OC2c2ccccc2)cc1 (stereo not given)
inactive: [14] 92 % of control | [15] 97 % of control | [16] 92 % of control

CC1=Nc2c([nH]cnc2=S)NN1
inactive: dose: 6.25 mg/kg/injection, schedule: Q01DX009 (ip), vehicle: saline with Tween-80 94 % of control | dose: 6.25 mg/kg/injection, schedule: Q04DX003 (ip), vehicle: saline with Tween-80 102 % of control | dose: 12.5 mg/kg/injection, schedule: Q01DX001 (ip), vehicle: saline with Tween-80 87 % of control | dose: 12.5 mg/kg/injection, schedule: Q01DX009 (ip), vehicle: saline with Tween-80 91 % of control | dose: 12.5 mg/kg/injection, schedule: Q04DX003 (ip), vehicle: saline with Tween-80 98 % of control | dose: 25.0 mg/kg/injection, schedule: Q01DX001 (ip), vehicle: saline with Tween-80 102 % of control | dose: 25.0 mg/kg/injection, schedule: Q04DX003 (ip), vehicle: saline with Tween-80 100 % of control

Oc1ccccc1/C=N/Nc1ccc2ccccc2n1
inactive: dose: 75.0 mg/kg/injection, schedule: Q01DX001 (ip), vehicle: saline with Tween-80 93 % of control | dose: 150.0 mg/kg/injection, schedule: Q01DX001 (ip), vehicle: saline with Tween-80 90 % of control | dose: 300.0 mg/kg/injection, schedule: Q01DX001 (ip), vehicle: saline with Tween-80 93 % of control

CCCCOC(=O)c1ccc(NC(=O)Nc2cc(C(F)(F)F)ccc2Cl)cc1
inactive: [14] 107 % of control | [15] 113 % of control | [16] 94 % of control

Cc1cc(Cl)ccc1NC(=O)C(c1ccccc1)c1ccccc1
inactive: [14] 89 % of control | [11] 101 % of control | [15] 92 % of control | [12] 95 % of control | [16] 93 % of control | [13] 88 % of control

COc1ccc(OC(=O)Nc2ccccc2Cl)cc1
inactive: [14] 94 % of control | [11] 95 % of control | [15] 103 % of control | [12] 104 % of control | [16] 103 % of control | [13] 101 % of control

CCOC(=O)c1cc(N(CCOS(C)(=O)=O)CCOS(C)(=O)=O)ccc1[N+](=O)[O-]
inactive: dose: 50.0 mg/kg/injection, schedule: Q01DX001 (ip), vehicle: saline 103 % of control | [3] 97 % of control | [4] 97 % of control | [5] 97 % of control

Cc1ccc(C(=O)Nc2ccc([N+](=O)[O-])cc2)cc1
inactive: [11] 88 % of control | [12] 100 % of control | [13] 98 % of control

COc1ccc(N2CCN(c3c(N)cnc4ccccc34)CC2)c(OC)c1
inactive: [8] 97 % of control | [9] 103 % of control | [10] 97 % of control

C=C1C2C3CCC(C3)C2C(O)C2C3CCC(C3)C12 (stereo not given)
inactive: dose: 50.0 mg/kg/injection, schedule: Q01DX009 (ip), vehicle: saline with Tween-80 96 % of control | dose: 100.0 mg/kg/injection, schedule: Q01DX009 (ip), vehicle: saline with Tween-80 93 % of control | dose: 200.0 mg/kg/injection, schedule: Q01DX009 (ip), vehicle: saline with Tween-80 93 % of control
